Like-named read-outs stand apart in the source and are kept apart here.
What was measured:
PC-3 = experiment: Anchorage-independence growth assay in soft agar, PC-3; assay type: cell-based; settings: Homo sapiens, 336 h, 1 × 10^−5 M, 14 days, read-out: Inhibition % on Anchorage-independent Growth
Protocol: (§1) Anchorage-independence growth assay was performed to determine the ability of cancer cells to form colonies in soft agar. 1.0×10^4 cancer cells were suspended in 2 ml of DMEM medium containing 0.33% agar in the presence or absence of betulinol derivatives. The compounds were overlaid on a 2 ml matrix made up of 0.6% agar. The cultures were incubated at 37° C. in a humidified environment under 5% CO2 for 14 days without medium change. The cultures were fixed in Comoy's fixative (acetic acid/100% ethanol 1:3 v/v) and the numbers of anchorage-independent, tridimentional colonies (≧40 μm diameter) formed were counted under 10× magnification (Katdare et al., Cancer Lett. 111:141-47 (1997), which is hereby incorporated by reference in its entirety).

[1] = tested on: human prostate cancer DU-145 cell line; experiment: MTT cytotoxicity assay, DU-145; assay type: cell-based; settings: for Percent Killed: Prostate (1); for Growth Inhibition %: 1 × 10^−5
Protocol: (§2) The human prostate cancer LNCaP, PC-3, and DU-145 cell lines, as well as human fibroblast cell line, were obtained from the American Type Culture Collection (“ATCC”) and maintained in RPMI-1640, F-12k, and MEM mediums, respectively, supplemented with 10% FBS. Cell lines were maintained at 37° C. under a humidified atmosphere and 5% CO2 for testing of the cytotoxicity of betulinol derivatives. The cytotoxicity assay was performed using MTT assay according to the instructions of ATCC protocol. Cells 1×10^5 in 0.1 ml/well were plated in 96-well culture plates (Costar) and incubated with a different dilution of betulinol derivatives for 24, 48, and 72 hours. Ten μl of 3-[4,5-dimethylthiazol-2-yl]-2,5 diphenyl tetrazolium bromide was added into each well at the end of each incubation period. The reaction product, formazan, was dissolved in the detergent, and the absorbance was read at 540 nm (Ref).

LNCaP xenografts = assay type: in vivo, athymic mice
Protocol: All the animal studies were performed according to the guidelines and approval of the Institutional Animal Care and Use Committee and Research Animal Resource Center of Weill Medical College of Cornell University, New York. Twelve mice of 13 weeks of age were purchased from The National Cancer Institute (NCI) and were housed in a pathogen-free environment under controlled conditions of light and humidity and with free access to food and water. LNCaP cells were grown in RPMI-1640 with 10% FBS until 80-90% confluent. Cells were scraped into PBS and collected by centrifugation. The LNCaP cell pellets were suspended in Matrigel (Ref) at 2.5×10^7 cells/ml. Mice were injected subcutaneously (“s.c.”) with 200 μl (5×10^6 cells) of the cell suspension at one site on the flank. Visible tumor grew after 7-8 days following implantation and mice were divided into three groups of four mice each.
Mice received s.c. injection daily for ten days. […] Tumors were measured daily with calipers, and tumor volumes were calculated by the formula: π/6(1×w×h). Animals were also weighed daily and monitored for general health status and vital signs of possible toxicity due to treatment. At the end of the treatment period, the animals were sacrificed and tumors were excised, weighed and prepared for immunohistochemical and histological studies. […]

LNCaP = experiment: Anchorage-independence growth assay in soft agar, LNCaP; assay type: cell-based; settings: Homo sapiens, 336 h, 1 × 10^−5 M, 14 days, read-out: Inhibition % on Anchorage-independent Growth
Protocol: as §1

[2] = tested on: human fibroblast cell line; assay type: cell-based; settings: Fibroblasts; for Percent Killed: Prostate (1); for Growth Inhibition %: 1 × 10^−5
Protocol: as §2

[3] = Solubilization in PBS containing human γ-globulin, human albumin and ethanol; settings: for Observation: 1 × 10^−3 mol/L
Source text: Human γ-Globulin and human albumin are two major biocompatible components in human serum.

DU-145 = experiment: Anchorage-independence growth assay in soft agar, DU-145; assay type: cell-based; settings: Homo sapiens, 336 h, 1 × 10^−5 M, 14 days, read-out: Inhibition % on Anchorage-independent Growth
Protocol: as §1

Bladder cancer cells = settings: 1 × 10^−4 M; Bladder (1), cell line not given
184B5/HER = experiment: In vitro cytotoxicity, Breast (1), 184B5/HER; assay type: cell-based; settings: 1 × 10^−4 M
[4] = tested on: human prostate cancer PC-3 cell line; experiment: MTT cytotoxicity assay, PC-3; assay type: cell-based; settings: for Percent Killed: Prostate (1); for Growth Inhibition %: 1 × 10^−5
Protocol: as §2

[5] = Solubility in DMSO diluted with culture medium (GC); settings: for State of solution: 0.5 mg/mL (1 × 10^−3 mol/L), culture medium
Protocol: The residue was dissolved in chloroform analyzed on GC.
Ethyl ether was then evaporated. […] Concentration of drug in the above solutions was analyzed by GC and determined from the standard solubility curve.

[6] = tested on: human prostate cancer LNCaP cell line; experiment: MTT cytotoxicity assay, LNCaP; assay type: cell-based; settings: for Percent Killed / inhibition at 100 µM / inhibition at 10 µM / inhibition at 1 µM / Growth Inhibition %: LNCaP; for Percent Killed: Prostate (1); for inhibition at 100 µM / inhibition at 10 µM / inhibition at 1 µM: Homo sapiens, read-out: Growth Inhibition %; for inhibition at 1 µM: 1 × 10^−6 M; for Growth Inhibition %: 1 × 10^−5 (Table 12)
Protocol: as §2
However, these compounds were not tested on prostate cancer LNCaP cell line by NCI. […] The anti-tumor activity of the compounds was determined at three doses and the total growth inhibition kill effect as pertinent of the control at 24, 48, and 72 hours as presented in Table 11.

For C=C(C)C1CCC2(C(=O)O)CC[C@]3(C)[C@H](CC[C@@H]4[C@@]5(C)CCC(=O)C(C)(C)[C@@H]5CC[C@]43C)C12 (some centres unmarked) [Compound 4, Betulonic Acid], the inhibition at 10 µM (PC-3) was 26.1%, the “Percent Killed” value ([1]; 1 × 10^−4 M) was 54% and the “Percent Killed” value ([1]; 1 × 10^−5 M) was 51%. The “Growth Inhibition %” value ([1]; 24 hours) was 33%, the “Growth Inhibition %” value ([1]; 48 hours) was 51% and the “health status and vital signs of the mice during treatment” value (LNCaP xenografts; mouse, in vivo) was “no adverse effects on vital signs”. For the same molecule, the “increase of tumor volume on day 10 compared to day 1” value (LNCaP xenografts; s.c. daily for ten days, 20 mg/kg, LNCaP xenografts in athymic mice) was 20.3%, the inhibition at 10 µM (LNCaP) was 0% and the “Percent Killed” value ([2]; 1 × 10^−4 M) was “No effect”. For the same molecule, the “Percent Killed” value ([2]; 1 × 10^−5 M) was “No effect”, the “Growth Inhibition %” value ([2]; 24 hours) was 0% and the “Growth Inhibition %” value ([2]; 48 hours) was 0%. For the same molecule, the Observation ([3]; ethanol 220 μL, γ-globulin PBS 1.48 mL, albumin PBS 0.49 mL) was “Cloudy”, the Observation ([3]; ethanol 280 μL, γ-globulin PBS 0 mL, albumin PBS 2.50 mL) was “Complete” and the Observation ([3]; ethanol 280 μL, γ-globulin PBS 2.50 mL, albumin PBS 0 mL) was “Suspension”. The Observation ([3]; ethanol 308 μL, γ-globulin PBS 0.69 mL, albumin PBS 2.07 mL) was “Almost Clear”, the Observation ([3]; ethanol 330 μL, γ-globulin PBS 1.48 mL, albumin PBS 1.48 mL) was “Little Cloudy” and the Observation ([3]; ethanol 352 μL, γ-globulin PBS 0.32 mL, albumin PBS 2.85 mL) was “Clear”. The concentration completely dissolved ([3]; PBS containing 4% human albumin, final concentration of 10% ethanol) was 1×10^−3 mol per liter, the concentration completely dissolved ([3]; human albumin PBS solution with 10% ethanol) was 0.001 mol/L and the inhibition at 10 µM (DU-145) was 12.5%. For the same molecule, the “Percent Killed” value (Bladder cancer cells) was 37%, the “Percent Killed” value (184B5/HER) was “Toxic” and the “Percent Killed” value ([4]; 1 × 10^−4 M) was 54%. For the same molecule, the “Percent Killed” value ([4]; 1 × 10^−5 M) was 41%, the “Growth Inhibition %” value ([4]; 24 hours) was 9.7% and the “Growth Inhibition %” value ([4]; 48 hours) was 41.1%. For the same molecule, the State of solution ([5]; 3% DMSO in total Vol.) was “Suspension”, the State of solution ([5]; 9% DMSO in total Vol.) was “Suspension” and the State of solution ([5]; 14% DMSO in total Vol.) was “Cloudy”. The State of solution ([5]; 20% DMSO in total Vol.) was “clear solution”, the State of solution ([5]; 20% DMSO in total Vol., listed as BA) was “Clear” and the “amount dissolved out of 3 mg” value ([5]; 1% DMSO in culture medium containing 10% FBS, nominal 1×10^−3 mol/L) was 0.4 mg. For the same molecule, the “Percent Killed” value ([6]; 1 × 10^−4 M) was 81%, the “Percent Killed” value ([6]; 1 × 10^−5 M) was 75% and the inhibition at 100 µM ([6]; 24 h, 24 hours, 1 × 10^−4 M) was 70.4 ± 19.1%. It also gave an inhibition at 10 µM ([6]; 24 h, 24 hours, 1 × 10^−5 M) of 24.2 ± 10.8%, an inhibition at 1 µM ([6]; 24 h, 24 hours) of 9.2 ± 6.1% and an inhibition at 100 µM ([6]; 48 h, 48 hours, 1 × 10^−4 M) of 81 ± 12.6%. For the same molecule, the inhibition at 10 µM ([6]; 48 h, 48 hours, 1 × 10^−5 M) was 69.5 ± 20.2%, the inhibition at 1 µM ([6]; 48 h, 48 hours) was 27.8 ± 11.4% and the inhibition at 100 µM ([6]; 72 h, 72 hours, 1 × 10^−4 M) was 80.8 ± 15.8%. The inhibition at 10 µM ([6]; 72 h, 72 hours, 1 × 10^−5 M) was 88.4 ± 7.96%, the inhibition at 1 µM ([6]; 72 h, 72 hours) was 45 ± 12.3% and the “Growth Inhibition %” value ([6]; 24 hours) was 38 ± 8%. For the same molecule, the “Growth Inhibition %” value ([6]; 48 hours) was 75 ± 9% and the “kill effects on LNCaP cell growth compared to the other compounds” value ([6]; MTT assay, compounds 1-8) was “highest kill effects”.
